Measurements published in article PMC4104544 (Cell, 2014).

Target: OSBP (oxysterol-binding protein) (Homo sapiens, UniProt P22059)
Test: cell-based

Chain of OSBP (oxysterol-binding protein) (P22059 2-807): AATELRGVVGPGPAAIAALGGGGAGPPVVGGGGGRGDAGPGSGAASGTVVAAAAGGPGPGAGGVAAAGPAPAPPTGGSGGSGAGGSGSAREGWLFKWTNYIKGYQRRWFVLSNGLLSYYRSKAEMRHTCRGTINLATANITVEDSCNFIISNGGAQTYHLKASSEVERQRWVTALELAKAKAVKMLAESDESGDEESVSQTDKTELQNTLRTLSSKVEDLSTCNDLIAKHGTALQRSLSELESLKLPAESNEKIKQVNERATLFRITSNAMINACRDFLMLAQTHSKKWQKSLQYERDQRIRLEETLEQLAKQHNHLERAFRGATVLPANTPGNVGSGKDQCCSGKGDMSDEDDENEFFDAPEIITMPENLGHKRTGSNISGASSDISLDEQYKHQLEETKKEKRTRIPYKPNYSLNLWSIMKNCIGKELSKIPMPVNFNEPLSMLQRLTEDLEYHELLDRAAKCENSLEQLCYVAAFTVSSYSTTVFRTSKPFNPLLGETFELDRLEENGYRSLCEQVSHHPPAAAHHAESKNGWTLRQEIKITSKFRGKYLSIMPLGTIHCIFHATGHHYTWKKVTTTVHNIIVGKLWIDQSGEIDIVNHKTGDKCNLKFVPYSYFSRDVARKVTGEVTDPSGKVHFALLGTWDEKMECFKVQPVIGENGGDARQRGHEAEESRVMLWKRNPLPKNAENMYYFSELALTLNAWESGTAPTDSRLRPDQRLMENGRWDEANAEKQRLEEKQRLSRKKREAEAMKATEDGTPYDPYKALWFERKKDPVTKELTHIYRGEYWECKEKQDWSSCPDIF
Chain of OSBP (oxysterol-binding protein) (O75344 whole entry partner): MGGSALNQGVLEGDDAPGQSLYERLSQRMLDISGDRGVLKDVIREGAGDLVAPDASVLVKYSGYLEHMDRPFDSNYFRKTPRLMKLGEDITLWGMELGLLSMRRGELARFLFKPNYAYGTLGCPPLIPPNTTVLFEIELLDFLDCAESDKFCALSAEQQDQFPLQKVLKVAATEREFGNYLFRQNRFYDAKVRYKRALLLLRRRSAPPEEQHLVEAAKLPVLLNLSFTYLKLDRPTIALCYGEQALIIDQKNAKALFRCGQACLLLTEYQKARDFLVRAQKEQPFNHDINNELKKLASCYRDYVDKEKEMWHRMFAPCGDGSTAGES

Molecule COc1ccc(C(=O)O[C@H]2[C@H](O[C@@H]3[C@@H](OC(C)=O)[C@H](O[C@H]4C[C@H]5[C@@H]6CC=C7C[C@@H](O)CC[C@]7(C)[C@H]6CC[C@]5(C)[C@@]4(O)[C@H](C)C(=O)CCC(C)C)OC[C@@H]3O)OC[C@@H](O)[C@@H]2O)cc1 [OSW-1] has an EC50 of 60 nM.
